According to ChEMBL document CHEMBL6127092, “Comprehensive structural investigation of a potent and selective CXCR4 antagonist via crosslink modification” (Eur J Med Chem, 2024):
pIC50: −log10 of the molar value. Values belong to the molecule of their own block, whether it stands above or below them. Activity calls are given as the source filed them. No cut-off for these calls is given here. Where a SMILES comes first, the peptide text is derived from it. Bridges are numbered along the chain shown (N, C = ends). Triazole bridges read from a SMILES are 1,4-linked. [ ]: non-standard residue; d: D form. 2Nal = N[C@@H](Cc1ccc2ccccc2c1)C(=O)O; Dap(N3) = [N-]=[N+]=NC[C@H](N)C(=O)O; Pra = C#CC[C@H](N)C(=O)O

Columns and labels:
[1] = molecular target: T1, C-X-C chemokine receptor type 4 (Homo sapiens, UniProt P61073); assay: Binding affinity to CXCR4 (unknown origin) overexpressed in human CCRF-CEM cells assessed as inhibition of ant-CXCR4 PE-antibody binding to receptor preincubated with compound for 45 mins followed by anti-CXCR4 PE-antibody addition and measured after 30 mins by flow cytometry based competitive binding assay; format: cell-based
[2] = molecular target: T1, C-X-C chemokine receptor type 4; assay: Agonist activity at GFP-tagged CXCR4 (unknown origin) transfected in CHO cells assessed as induction of internalization at 0.1 to 1 uM incubated with compound for 45 mins and measured at 30 to 90 mins by DAPI staining based fluorescence microscopic analysis; format: functional, cell-based; settings: dose 0.1-1 µM, time 30-90 min
[3] = molecular target: T1, C-X-C chemokine receptor type 4; assay: Antagonist activity at CXCR4 (unknown origin) transfected in human CCRF-CEM cells assessed as inhibition of CXCL12-induced internalization at 0.1 to 1 uM preincubated for 45 mins followed by CXCL12 addition and measured after 30 mins by flow cytometric analysis; format: cell-based; settings: filed as antagonist, dose 0.1-1 µM, time 75.0 min
[4] = molecular target: Atypical chemokine receptor 3 (Homo sapiens) (UniProt P25106); assay: Binding affinity to CXCR7 (unknown origin) overexpressed in human MCF7 cells upto 10 uM preincubated for 45 mins followed by anti-CXCR7-APC antibody addition and measured after 30 mins by flow cytometric analysis; format: cell-based; settings: time 75.0 min
CCRF-CEM [5] = assay: Inhibition of CXCL12-mediated cell migration in human CCRF-CEM cells expressing CXCR4 at 0.01 to 10 uM incubated for 6 hrs by DAPI staining based fluorescence microscopic analysis; format: functional; settings: dose 0.01-10 µM
[6] = molecular target: T1, C-X-C chemokine receptor type 4; assay: Antagonist activity at GFP-tagged CXCR4 (unknown origin) transfected in CHO cells assessed as inhibition of CXCL12-induced cytoplasmic translocation at 0.1 to 1 uM incubated with compound for 45 mins with subsequent CXCL12 addition and measured at 30 to 90 mins by DAPI staining based fluorescence microscopic analysis; format: cell-based; settings: filed as antagonist, dose 0.1-1 µM, time 30-90 min
[7] = molecular target: T1, C-X-C chemokine receptor type 4; assay: Agonist activity at CXCR4 (unknown origin) transfected in human CCRF-CEM cells assessed as induction of internalization at 0.1 uM incubated for 45 mins by flow cytometric analysis; format: functional, cell-based
CCRF-CEM [8] = assay: Inhibition of CXCL12-mediated cell migration in human CCRF-CEM cells expressing CXCR4 at 0.01 uM incubated for 6 hrs by DAPI staining based fluorescence microscopic analysis; format: functional
[9] = Stability of compound in PBS at pH 7.4 assessed as parent compound remaining at 10 uM measured after 1 hrs in presence of GSH by RP-HPLC analysis; format: physicochemical; settings: PBS with GSH, read-out: Stability
[10] = Stability of compound in PBS at pH 7.4 assessed as parent compound remaining at 10 uM measured after 2 hrs in presence of GSH by RP-HPLC analysis; format: physicochemical; settings: PBS with GSH, read-out: Stability
[11] = molecular target: T1, C-X-C chemokine receptor type 4; assay: Displacement of [125I]-CXCL12 from CXCR4 (unknown origin) overexpressed in human CCRF-CEM cells incubated for 1 hrs by gamma-counter; format: cell-based
[12] = Stability of compound in PBS at pH 7.4 assessed as parent compound remaining at 10 uM measured immediately in presence of GSH by RP-HPLC analysis; format: physicochemical; settings: PBS with GSH, read-out: Stability
[13] = Stability of compound in PBS at pH 7.4 assessed as parent compound remaining at 10 uM measured after 8 hrs in presence of GSH by RP-HPLC analysis; format: physicochemical; settings: PBS with GSH, read-out: Stability
CCRF-CEM [14] = assay: Inhibition of CXCL12-mediated cell migration in human CCRF-CEM cells expressing CXCR4 incubated for 6 hrs by DAPI staining based fluorescence microscopic analysis; format: functional; settings: dose 0.01-10 µM
[15] = Stability of compound in PBS at pH 7.4 assessed as parent compound remaining at 10 uM measured after 4 hrs in presence of GSH by RP-HPLC analysis; format: physicochemical; settings: PBS with GSH, read-out: Stability
[16] = molecular target: T1, C-X-C chemokine receptor type 4; assay: Agonist activity at CXCR4 (unknown origin); format: functional

T1 sequence (P61073 whole entry): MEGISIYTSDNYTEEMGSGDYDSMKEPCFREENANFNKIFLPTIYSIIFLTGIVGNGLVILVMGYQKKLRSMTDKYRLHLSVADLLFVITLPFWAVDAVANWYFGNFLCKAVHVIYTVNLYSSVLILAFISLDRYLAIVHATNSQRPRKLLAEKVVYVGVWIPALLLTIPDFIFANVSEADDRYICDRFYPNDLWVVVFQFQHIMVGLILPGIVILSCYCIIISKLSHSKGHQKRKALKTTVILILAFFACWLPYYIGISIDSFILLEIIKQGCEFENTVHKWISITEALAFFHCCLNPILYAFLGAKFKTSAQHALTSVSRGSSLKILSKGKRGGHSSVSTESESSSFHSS
Atypical chemokine receptor 3 (Homo sapiens), sequence (P25106 whole entry): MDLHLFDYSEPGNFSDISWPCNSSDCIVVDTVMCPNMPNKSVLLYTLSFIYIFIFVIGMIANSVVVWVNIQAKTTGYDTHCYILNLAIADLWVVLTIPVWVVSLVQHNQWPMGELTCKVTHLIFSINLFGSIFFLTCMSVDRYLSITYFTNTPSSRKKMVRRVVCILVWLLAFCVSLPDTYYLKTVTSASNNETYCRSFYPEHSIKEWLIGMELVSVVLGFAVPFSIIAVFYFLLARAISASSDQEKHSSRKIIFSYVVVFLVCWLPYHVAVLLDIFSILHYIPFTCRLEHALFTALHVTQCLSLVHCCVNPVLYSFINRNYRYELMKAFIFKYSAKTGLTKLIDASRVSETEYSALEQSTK

Compound: CC(=O)N[C@@H](CCCNC(=N)N)C(=O)N[C@@H](C)C(=O)N[C@H]1CCC(=O)NCC[C@@H](C(=O)O)NC(=O)[C@H](Cc2c[nH]cn2)NC(=O)[C@H](Cc2ccc3ccccc3c2)NC(=O)[C@H](CCCNC(=N)N)NC1=O
- pIC50 [1]: < 8.00

Compound: CC(=O)N[C@@H](CCCNC(=N)N)C(=O)N[C@@H](C)C(=O)N[C@H]1CCC(=O)NCCC[C@@H](C(=O)O)NC(=O)[C@H](Cc2c[nH]cn2)NC(=O)[C@H](Cc2ccc3ccccc3c2)NC(=O)[C@H](CCCNC(=N)N)NC1=O
- pIC50 [1]: < 8.00

Compound: CC(=O)N[C@@H](CCCNC(=N)N)C(=O)N[C@@H](C)C(=O)N[C@@H]1CNC(=O)C[C@@H](C(=O)O)NC(=O)[C@H](Cc2c[nH]cn2)NC(=O)[C@H](Cc2ccc3ccccc3c2)NC(=O)[C@H](CCCNC(=N)N)NC1=O
- pIC50 [1]: 5.44

Compound: CC(=O)N[C@@H](CCCNC(=N)N)C(=O)N[C@@H](C)C(=O)N[C@H]1CSSC(C)(C)[C@H](C(=O)O)NC(=O)[C@H](Cc2c[nH]cn2)NC(=O)[C@H](Cc2ccc3ccccc3c2)NC(=O)[C@H](CCCNC(=N)N)NC1=O
- Activity [2]: inactive
- Activity [3]: Active
- Activity [4]: inactive
- inhibition (CCRF-CEM [5]): Active
- Activity [6]: Active
- Activity [7]: inactive

Compound: CC(=O)N[C@@H](CCCNC(=N)N)C(=O)N[C@@H](C)C(=O)N[C@H]1CCC(=O)NCCCC[C@@H](C(=O)O)NC(=O)[C@H](Cc2c[nH]cn2)NC(=O)[C@H](Cc2ccc3ccccc3c2)NC(=O)[C@H](CCCNC(=N)N)NC1=O
- pIC50 [1]: < 8.00

Compound: CC(=O)N[C@@H](CCCNC(=N)N)C(=O)N[C@@H](C)C(=O)N[C@H]1CC(=O)NCCC[C@@H](C(=O)O)NC(=O)[C@H](Cc2c[nH]cn2)NC(=O)[C@H](Cc2ccc3ccccc3c2)NC(=O)[C@H](CCCNC(=N)N)NC1=O
- pIC50 [1]: < 8.00

Compound: CC(=O)N[C@@H](CCCNC(=N)N)C(=O)N[C@@H](C)C(=O)N[C@@H]1CC(=O)NCCCC[C@@H](C(=O)O)NC(=O)[C@H](Cc2c[nH]cn2)NC(=O)[C@H](Cc2ccc3ccccc3c2)NC(=O)[C@H](CCCNC(=N)N)NC1=O
- pIC50 [1]: 5.59

Compound: CC(=O)N[C@@H](CCCNC(=N)N)C(=O)N[C@@H](C)C(=O)N[C@H]1Cn2cc(nn2)C[C@@H](C(=O)O)NC(=O)[C@H](Cc2c[nH]cn2)NC(=O)[C@H](Cc2ccc3ccccc3c2)NC(=O)[C@H](CCCNC(=N)N)NC1=O (Ac-RA[Dap(N3)]R[2Nal]H[Pra]-OH; triazole 3-7)
- pIC50 [11]: 7.44

Compound: CC(=O)N[C@@H](CCCNC(=N)N)C(=O)N[C@@H](C)C(=O)N[C@@H]1CC(=O)NC[C@@H](C(=O)O)NC(=O)[C@H](Cc2c[nH]cn2)NC(=O)[C@H](Cc2ccc3ccccc3c2)NC(=O)[C@H](CCCNC(=N)N)NC1=O
- pIC50 [1]: 5.50

Compound: CC(=O)N[C@@H](CCCNC(=N)N)C(=O)N[C@@H](C)C(=O)N[C@H]1Cc2cnnn2CC[C@@H](C(=O)O)NC(=O)[C@H](Cc2c[nH]cn2)NC(=O)[C@H](Cc2ccc3ccccc3c2)NC(=O)[C@H](CCCNC(=N)N)NC1=O
- pIC50 [16]: 7.51

Compound: CC(=O)N[C@@H](CCCNC(=N)N)C(=O)N[C@@H](C)C(=O)N[C@@H]1CSSC(C)(C)[C@@H](C(=O)O)NC(=O)[C@H](Cc2cnc[nH]2)NC(=O)[C@H](Cc2ccc3ccccc3c2)NC(=O)[C@H](CCCNC(=N)N)NC1=O
- pIC50 [1]: 8.82
- remaining at 1 h, 10 µM [9]: 88%
- remaining at 2 h, 10 µM [10]: 79%
- pIC50 [11]: 7.82
- remaining at 0 h, 10 µM [12]: 100%
- remaining at 8 h, 10 µM [13]: 52%
- remaining at 4 h, 10 µM [15]: 65%

Compound: CC(=O)N[C@@H](CCCNC(=N)N)C(=O)N[C@@H](C)C(=O)N[C@@H]1CCC(=O)NCCCC[C@@H](C(=O)O)NC(=O)[C@H](Cc2c[nH]cn2)NC(=O)[C@H](Cc2ccc3ccccc3c2)NC(=O)[C@H](CCCNC(=N)N)NC1=O
- pIC50 [1]: < 8.00

Compound: CC(=O)N[C@@H](CCCNC(=N)N)C(=O)N[C@@H](C)C(=O)N[C@H]1CC(=O)NC[C@@H](C(=O)O)NC(=O)[C@H](Cc2c[nH]cn2)NC(=O)[C@H](Cc2ccc3ccccc3c2)NC(=O)[C@H](CCCNC(=N)N)NC1=O
- pIC50 [1]: < 8.00

Compound: CC(=O)N[C@@H](CCCNC(=N)N)C(=O)N[C@@H](C)C(=O)N[C@H]1CC(=O)NCCCC[C@@H](C(=O)O)NC(=O)[C@H](Cc2c[nH]cn2)NC(=O)[C@H](Cc2ccc3ccccc3c2)NC(=O)[C@H](CCCNC(=N)N)NC1=O
- pIC50 [1]: < 8.00

Compound: CC(=O)N[C@@H](CCCNC(=N)N)C(=O)N[C@@H](C)C(=O)N[C@@H]1CCC(=O)NCCC[C@@H](C(=O)O)NC(=O)[C@H](Cc2c[nH]cn2)NC(=O)[C@H](Cc2ccc3ccccc3c2)NC(=O)[C@H](CCCNC(=N)N)NC1=O
- pIC50 [1]: < 8.00

Now from value to molecule, other results behind:

- pIC50 [1]: 6.12
Compound: CC(=O)N[C@@H](CCCNC(=N)N)C(=O)N[C@@H](C)C(=O)N[C@H]1CC(=O)NCC[C@@H](C(=O)O)NC(=O)[C@H](Cc2c[nH]cn2)NC(=O)[C@H](Cc2ccc3ccccc3c2)NC(=O)[C@H](CCCNC(=N)N)NC1=O

- pIC50 [1]: 7.05
Compound: CC(=O)N[C@@H](CCCNC(=N)N)C(=O)N[C@@H](C)C(=O)N[C@@H]1CCC(=O)NC[C@@H](C(=O)O)NC(=O)[C@H](Cc2c[nH]cn2)NC(=O)[C@H](Cc2ccc3ccccc3c2)NC(=O)[C@H](CCCNC(=N)N)NC1=O

- Activity [2]: inactive
- pIC50 [1]: 8.11
- remaining at 1 h, 10 µM [9]: 100%
- remaining at 2 h, 10 µM [10]: 100%
- pIC50 [11]: 8.41
- Activity [3]: Active
- Activity [4]: inactive
- Activity [6]: Active
- remaining at 0 h, 10 µM [12]: 100%
- remaining at 8 h, 10 µM [13]: 100%
- remaining at 4 h, 10 µM [15]: 100%
- Activity [7]: inactive
Compound: CC(=O)N[C@@H](CCCNC(=N)N)C(=O)N[C@@H](C)C(=O)N[C@H]1CNC(=O)CC[C@@H](C(=O)O)NC(=O)[C@H](Cc2c[nH]cn2)NC(=O)[C@H](Cc2ccc3ccccc3c2)NC(=O)[C@H](CCCNC(=N)N)NC1=O
- inhibition (CCRF-CEM [8]): Active
- inhibition (CCRF-CEM [14]): Dose-Dependent Effect

- pIC50 [1]: 6.84
Compound: CC(=O)N[C@@H](CCCNC(=N)N)C(=O)N[C@@H](C)C(=O)N[C@H]1CNC(=O)C[C@@H](C(=O)O)NC(=O)[C@H](Cc2c[nH]cn2)NC(=O)[C@H](Cc2ccc3ccccc3c2)NC(=O)[C@H](CCCNC(=N)N)NC1=O

- pIC50 [1]: 5.69
Compound: CC(=O)N[C@@H](CCCNC(=N)N)C(=O)N[C@@H](C)C(=O)N[C@@H]1CC(=O)NCCC[C@@H](C(=O)O)NC(=O)[C@H](Cc2c[nH]cn2)NC(=O)[C@H](Cc2ccc3ccccc3c2)NC(=O)[C@H](CCCNC(=N)N)NC1=O

- pIC50 [1]: 6.62
Compound: CC(=O)N[C@@H](CCCNC(=N)N)C(=O)N[C@@H](C)C(=O)N[C@@H]1CCC(=O)NCC[C@@H](C(=O)O)NC(=O)[C@H](Cc2c[nH]cn2)NC(=O)[C@H](Cc2ccc3ccccc3c2)NC(=O)[C@H](CCCNC(=N)N)NC1=O

- pIC50 [1]: 6.15
Compound: CC(=O)N[C@@H](CCCNC(=N)N)C(=O)N[C@@H](C)C(=O)N[C@@H]1CC(=O)NCC[C@@H](C(=O)O)NC(=O)[C@H](Cc2c[nH]cn2)NC(=O)[C@H](Cc2ccc3ccccc3c2)NC(=O)[C@H](CCCNC(=N)N)NC1=O

- pIC50 [1]: 6.09
Compound: CC(=O)N[C@@H](CCCNC(=N)N)C(=O)N[C@@H](C)C(=O)N[C@@H]1CNC(=O)CC[C@@H](C(=O)O)NC(=O)[C@H](Cc2c[nH]cn2)NC(=O)[C@H](Cc2ccc3ccccc3c2)NC(=O)[C@H](CCCNC(=N)N)NC1=O

- pIC50 [1]: 6.29
Compound: CC(=O)N[C@@H](CCCNC(=N)N)C(=O)N[C@@H](C)C(=O)N[C@H]1CCC(=O)NC[C@@H](C(=O)O)NC(=O)[C@H](Cc2c[nH]cn2)NC(=O)[C@H](Cc2ccc3ccccc3c2)NC(=O)[C@H](CCCNC(=N)N)NC1=O
